The nature of the data set: thermodynamic acid dissociation constant (pKa) of pH sensitive reagents. In kind it is physicochemical. To be noted: reagent properties used in simulations.

Turning to `O=S1(=O)OC(c2cc(Br)c(O)c(Br)c2)(c2cc(Br)c(O)c(Br)c2)c2ccccc21` [Bromophenol Blue], the pKa is 4.11.
For the molecule `O=S1(=O)OC(c2ccc(O)c(Cl)c2)(c2ccc(O)c(Cl)c2)c2ccccc21` [Chlorophenol Red], the pKa is 6.11.

By pKa is commonly meant the pH at which an ionisable group is half protonated. Read a low pKa as a stronger acid or weaker base.

Source of the values: US7432109B2, “Spetroscopic pH measurement using optimized mixtures of reagents to extend measurement range” (Schlumberger Technology Corporation, priority 2002, dated 2008).
